The values that follow come from publication PMC8587785, “A New Class of Uracil–DNA Glycosylase Inhibitors Active against Human and Vaccinia Virus Enzyme” (Molecules, 2021).

Usually Ki stands for the dissociation constant of the complex between target and ligand, obtained from inhibition or displacement. Broadly, the Vmax is the top rate of the reaction or transport when substrate is in excess. For orientation: IC50 means the midpoint of a concentration-inhibition curve.

SMILES strings stand for the structures. Entries after “also recorded” stand apart in the source; their conditions may differ. Where two headings read alike, the source gives them in different places.

For test [1], the target named is T1, vaccinia virus UNG (vvUNG, D4 protein) (Vaccinia virus, UniProt P20536).
T1 construct: made in house
The test is classed as biochemical. Particulars: at 100 μM.

The target of test [2] is T2, hUNG (Homo sapiens, UniProt P13051).
T2 construct: truncated catalytically active human uracil–DNA glycosylase (hUNG ΔN84); His6 (N); linker with thrombin cleavage site (pET-15b) (N); made in house; host or cells: E. coli BL21(DE3), pET-15b
Put plainly: Uracil–DNA glycosylase assay, biochemical screening against hUNG (cleavage of 32P-labeled ssDNA 20-mer with dU). Particulars: for hUNG inhibition, dose response: inhibitors at 10, 100 and 1000 μM; for IC50: conditions used for screening: 50 nM substrate, 20 pM enzyme, 10 min, 37 °C. The method, then:
As hUNG excises Ura from single- and double-stranded DNA with similar efficiency, we have used the cleavage of a 20-mer single-stranded DNA oligonucleotide containing a dU residue in position 8 (Section 4.1) to assay hUNG activity in the presence of inhibitors. Twenty-three identified compounds were tested at 10, 100, and 1000 μM (Figure 2a). […] However, even the best inhibitor, 4B, had IC50 between 100 and 1000 μM under the conditions used for screening.
Figure 2 Biochemical screening of the inhibitors identified by molecular docking. (a) hUNG activity in the presence of the inhibitors at 10 μM (black bars), 100 μM (light gray bars), or 1000 μM (dark gray bars). The activity is normalized for that in the absence of the inhibitor. Means and SD of three independent experiments are shown; (b) Structures of the compounds 2D, 3A, 3B, 4B, 4E, 4F, and 4G.
The identified compounds were purchased from Vitas-M Laboratory (Vitas-M Laboratory, Ltd., Hong Kong, China). The reaction mixture (10 μL) included 25 mM sodium phosphate (pH 7.5), 1 mM dithiothreitol, 1 mM Na-EDTA, 50 nM ^32P-labeled substrate, 20 pM enzyme, and the inhibitors at 10, 100, and 1000 μM. The reaction was carried out for 10 min at 37 °C, terminated by adding NaOH to 100 mM and heating for 2 min at 95 °C, and neutralized by an equimolar amount of HCl. The mixture was supplemented with 5 μL of formamide dye (80% formamide, 20 mM Na-EDTA, 0.1% xylene cyanol, 0.1% bromophenol blue), and the reaction products were separated by gel electrophoresis in 20% polyacrylamide/7.2 M urea. The gels were visualized and quantified by phosphorimaging using the Typhoon FLA 9500 system (GE Healthcare, Chicago, IL, USA).

For test [3], the target named is T2, hUNG. The experiment in a line: Inhibition mechanism determination, steady-state kinetics of substrate cleavage by hUNG. Conditions: for θ rel (Akaike’s relative likelihood of the model): best model’s likelihood taken for 1; for Vmax: fit in the presence of the inhibitor; for mode of inhibition: fit to competitive, uncompetitive and mixed models. The test is classed as biochemical. The protocol:
KM and Vmax parameters of the Michaelis–Menten scheme were determined at different inhibitor concentrations, and the results were analyzed by fitting to competitive, uncompetitive, and mixed inhibition models (Figure 3, Table 1). Akaike’s information criterion was used to compare the quality of fit under the models. […] The kinetic values reported for ssDNA cleavage by hUNG in the literature vary widely (0.22–13.8 μM for KM, 647–1060 min^−1 for kcat) yet generally agree with our data.
The reactions were performed as described above except that the substrate concentrations were 0.1, 0.3, 0.5, 0.7, 1, 3, 5, 7, and 10 μM, and the inhibitors concentrations were 0, 100, 300, 500, and 1000 μM. […] To determine the type of inhibition and calculate Ki, the data were fit to the competitive, uncompetitive, and mixed inhibition models using an R script.

The test system of a further test is HEK 293FT cells. The experiment in a line: Cell toxicity assay (MTT). The test is classed as cell-based, human. Particulars: for EC50: Homo sapiens, HEK293FT, 72 h, read-out: effective concentration (toxicity). The source says:
To assess the toxicity of UNG inhibitors for human cells, we have treated HEK293 cell line with the compounds 4B and 4F as the best inhibitors (Table 1). […] Since Ura preferentially accumulates in DNA from a dUTP pool, we have next tested the toxicity of these UNG inhibitors in the presence of MTX, which is an antimetabolite drug that inhibits dihydrofolate reductase, reduces the availability of tetrahydrofolate, and thus suppresses the conversion of […].
Figure 4 Cytotoxicity of UNG inhibitors. (a) Survival of HEK 293FT cells in the presence of the UNG inhibitors 4B and 4F (0.8–500 μM); (b) survival of HEK 293FT cells in the presence of MTX alone (0.02–10 μM) or 100 μM 4B plus MTX (0.1–10 μM); (c) survival of HEK 293FT cells in the presence of the UNG inhibitors 4B and 4F (0.8–500 μM) plus 0.1 μM MTX. In Panel C, the survival in the presence of 0.1 μM MTX alone is taken for 100%. Mean ± s. e. m. is shown (n = 3).
Human embryonic kidney cells (HEK 293FT) were from Thermo Fisher Scientific (Waltham, MA, USA; Cat. #R70007). The laboratory stock was regularly checked for the absence of mycoplasma contamination by PCR. Cells were grown in T25 cm^2 flasks in the complete medium (Dulbecco’s modified Eagle’s medium supplemented with 10% fetal bovine serum, 1 mM sodium pyruvate, 2 mM L-glutamine, and 1% penicillin–streptomycin–amphotericin B) as adherent monolayer cultures. The cultures were maintained at 37 °C in humidified atmosphere with 5% CO2. Cytotoxicity was determined by the colorimetric MTT (3-(4,5-dimethyl-2-thiazolyl)-2,5-diphenyl-2H-tetrazolium bromide) assay. The cells were harvested by trypsinization, seeded in the complete medium (100 μL per well) into 96-well plates at the density of 1.4×10^4 cells per well, and incubated for 24 h to settle and resume proliferation. MTX was dissolved in 1 M NaOH to 22 mM. […] After 15 min at room temperature to solubilize the formed formazan, A570 and A620 were measured with a Multiskan EX microplate reader (Thermo Fisher Scientific, Waltham, MA, USA). […]

In a further test the test system is 947 human cell lines. Particulars: read-out: median EC50; cited from earlier work.
Test [4] concerns the target T2, hUNG. Particulars: open (not DNA-bound) conformation; cited from earlier work.
For another test, the system named is E. coli UNG. Conditions: cited from earlier work.
Setting [5] is: competitive model, read-out: Ki.
[6] abbreviates: uncompetitive model, read-out: Ki.

On to `Cc1ccc(C=C2C(=O)NC(=O)NC2=O)o1` [2D], for which the “suppression of vvUNG activity” value in test [1] is “≈ 50%”. The “hUNG inhibition, dose response” value at hUNG [2] is “progressively lower substrate cleavage with the increasing inhibitor concentration”.
For `CN(C)c1ccc(C=C2C(=O)NC(=O)NC2=O)cc1` [3A], the Ki is 530 ± 270 µM at hUNG [3] (Ki, competitive model) and 1300 ± 500 µM on hUNG [3] (Ki, uncompetitive model). For the same compound, the “θ rel (Akaike’s relative likelihood of the model)” value was 0.655 on hUNG [3] (competitive model) and “best model” on hUNG [3] (uncompetitive model). For the same compound, the Vmax on hUNG [3] (competitive model) was determined as 0.029 ± 0.003 µM/min; at hUNG [3] (uncompetitive model), 0.034 ± 0.004 µM/min. The mode of inhibition result on hUNG [3] is “the uncompetitive model was marginally better”. The “suppression of vvUNG activity” value in test [1] is listed as “≈ 50%”. The “hUNG inhibition, dose response” value at hUNG [2] is recorded as “progressively lower substrate cleavage with the increasing inhibitor concentration; also recorded: weak dose response”.
Turning to `O=C1NC(=O)C(=Cc2ccco2)C(=O)N1` [3B], the “suppression of vvUNG activity” value in test [1] was “≈ 50%”.
As to `COc1ccc(C=C2C(=O)NC(=O)NC2=O)c(OC)c1` [4B], in the test with HEK 293FT cells, the EC50 was 69 ± 1 µM. Besides, the results for the “θ rel (Akaike’s relative likelihood of the model)” value at hUNG [3] (competitive model) and at hUNG [3] (uncompetitive model) were “best model” and 2.53 × 10^−5, respectively. Further, the maximal velocity (Vmax) on hUNG [3] (competitive model) was 0.019 ± 0.001 µM/min; on hUNG [3] (uncompetitive model), 0.024 ± 0.003 µM/min. For the same compound, the Ki at hUNG [3] (setting [5]) stood at 140 ± 40 µM; at hUNG [3] (setting [6]), 550 ± 140 µM. For the same compound, the mode of inhibition result on hUNG [3] is “clearly better described by the competitive inhibition model”. Besides, the “suppression of vvUNG activity” value in test [1] is “≈ 50%”. For the same compound, the figures for the IC50 entry against hUNG [2] and at hUNG [2] (read-out: IC50) were “submillimolar range” and 100 to 1000 µM, respectively. Besides, on hUNG [2], the “hUNG inhibition, dose response” value is recorded as “progressively lower substrate cleavage with the increasing inhibitor concentration; also recorded: more pronounced dose response”.
For `Cc1ccc(C#N)c(SCc2cc(=O)[nH]c(=O)[nH]2)n1` [4E], the “hUNG inhibition, dose response” value at hUNG [2] was “progressively lower substrate cleavage with the increasing inhibitor concentration”.
In the case of `COc1cc(C=C2C(=O)NC(=O)NC2=O)cc(Cl)c1OC` [4F], the EC50 with HEK 293FT cells came to 77 ± 1 µM. In addition, at hUNG [3] (competitive model), the “θ rel (Akaike’s relative likelihood of the model)” value came to 0.8 and the Vmax is 0.053 ± 0.014 µM/min. On hUNG [3] (setting [5]), the Ki turned out to be 200 ± 130 µM. At hUNG [3], the mode of inhibition entry was “the uncompetitive model was marginally better”. On hUNG [3] (uncompetitive model), the “θ rel (Akaike’s relative likelihood of the model)” value is “best model” and the Vmax is 0.075 ± 0.028 µM/min. Besides, at hUNG [3] (setting [6]), the Ki is 250 ± 140 µM. Moreover, on hUNG [2], the IC50 result was “submillimolar range” and the “hUNG inhibition, dose response” value is “progressively lower substrate cleavage with the increasing inhibitor concentration; also recorded: more pronounced dose response”.
Consider `CC(Oc1ccc(C=C2C(=O)NC(=O)NC2=O)cc1)C(=O)O` (centres unmarked) [4G], for which the Ki on hUNG [3] (Ki, competitive model) was 3300 ± 2300 µM; at hUNG [3] (Ki, uncompetitive model), > 10000 µM. For the same compound, the entries for the “θ rel (Akaike’s relative likelihood of the model)” value on hUNG [3] (competitive model) and on hUNG [3] (uncompetitive model) were “best model” and 0.312, respectively. Also, the Vmax at hUNG [3] (competitive model) was 0.042 ± 0.002 µM/min; on hUNG [3] (uncompetitive model) it was 0.043 ± 0.003 µM/min. The mode of inhibition result at hUNG [3] is “clearly better described by the competitive inhibition model”. Also, at hUNG [2], the “hUNG inhibition, dose response” value is on record as “progressively lower substrate cleavage with the increasing inhibitor concentration; also recorded: more pronounced dose response”.
For the compound `CN(Cc1cnc2nc(N)nc(N)c2n1)c1ccc(C(=O)N[C@@H](CCC(=O)O)C(=O)O)cc1` [MTX, methotrexate, reference compound], in the test with HEK 293FT cells (0.1 μM MTX without the inhibitors), the “reduction in the cell viability” value is given as 20–25%. In addition, the EC50 with 947 human cell lines was 0.595 µM.
On to `O=C(O)C1=CC(=C(c2ccc(O)c(C(=O)O)c2)c2ccc(O)c(C(=O)O)c2)C=CC1=O` [aurintricarboxylic acid], for which the affinity entry on hUNG [4] is listed as “submicromolar affinity”.
As to `CNC(C)C1CCC(N)C(OC2C(N)CC(N)C(OC3OCC(C)(O)C(NC)C3O)C2O)O1` (centres unmarked) [gentamicin], the IC50 in the test with E. coli UNG was ~1000 µM.
